Data on 19 compounds can be found in US20100273189A1, “NON SEPARATION ASSAYS WITH SELECTIVE SIGNAL INHIBITORS” (BECKMAN COULTER, INC., priority 2009, published 2010).

Where two headings read alike, the source gives them in different places.

For one experiment, the system named is PSA. In words: Screening SSIA by homogeneous PSA immunoassay. It is filed as biochemical. The procedure:
This example presents one method used for testing of candidate compounds for functionality as SSIA in assays of the present disclosure. Testing was conducted in a model screening immunoassay of the protein PSA. Mouse anti-PSA tests were run using a 96-well microtiter plate format. […] The plate was incubated at 37° C. for 10 minutes. A 5 μL aliquot of the test compound (various concentrations) was added to each well. Chemiluminescence was triggered by the addition of 100 μL of a solution of trigger solution A. The chemiluminescent flash was integrated for 5 seconds after the addition of the trigger solution using a Luminoskan Asent® plate luminometer, (Thermo Fischer Scientific, Inc., Waltham, Mass.).
It is desirable that the improvement factor be at least 2 (S5/S0≧ about 20-30) and more desirable that improvement factor be at least 5 (S5/S0≧ about 50), yet more desirable that S5/S0 be ≧100 in the present screen.

The next experiment has as its target T1, biotinylated HRP (Armoracia rusticana, UniProt P00433).
T1 construct: purchased Roche Diagnostics, Indianapolis, Ind., USA
T1 sequence (P00433 31-338 limits assumed): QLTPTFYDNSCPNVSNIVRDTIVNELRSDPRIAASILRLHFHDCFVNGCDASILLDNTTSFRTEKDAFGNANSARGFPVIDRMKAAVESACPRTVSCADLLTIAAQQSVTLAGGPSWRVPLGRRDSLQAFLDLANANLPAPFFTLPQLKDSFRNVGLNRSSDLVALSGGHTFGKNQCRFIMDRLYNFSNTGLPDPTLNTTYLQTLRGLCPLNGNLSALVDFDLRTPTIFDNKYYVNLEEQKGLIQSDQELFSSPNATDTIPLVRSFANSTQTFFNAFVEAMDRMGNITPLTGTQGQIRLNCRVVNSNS
In words: Model system for selection of SSIA (M280 btn-BSA-AK1-streptavidin particles + Btn-HRP:HRP). The settings on record: for S/S0: Btn-HRP 0 ng/mL vs 0; for S/S0 / S1/S0 / S2/S0 / S3/S0 / S4/S0 / effect in the model system / utility as SSIA: SSIA 100 μM; for B-HRP0 light intensity: Btn-HRP 0 ng/mL; for B-HRP0 light intensity / B-HRP1 light intensity / B-HRP10 light intensity / B-HRP100 light intensity / B-HRP250 light intensity: total HRP 500 ng/mL, SSIA final 100 μM; for S1/S0: Btn-HRP 1 ng/mL vs 0; for B-HRP1 light intensity: Btn-HRP 1 ng/mL; for S2/S0: Btn-HRP 10 ng/mL vs 0; for B-HRP10 light intensity: Btn-HRP 10 ng/mL; for S3/S0: Btn-HRP 100 ng/mL vs 0; for B-HRP100 light intensity: Btn-HRP 100 ng/mL; for S4/S0: Btn-HRP 250 ng/mL vs 0; for B-HRP250 light intensity: Btn-HRP 250 ng/mL; for effect in the model system / utility as SSIA: conclusion in words. The experiment is classed as biochemical.

For another experiment, the system named is GM-CSF. Here is the method:
The term “GM-CSF” refers to granulocyte macrophage […], a protein necessary for the survival, proliferation and differentiation of hematopoietic progenitor cells, having human gene map locus 5q31.1. A variety of antibodies to GM-CSF are commercially available.
Heterogeneous phase assays directed to GM-CSF were conducted using a LodeStars PMP labeled with AK4 and biotin/streptavidin (AK-PMP-SA) as described in Example 3, an antibody-biotin conjugate and an antibody-HRP conjugate binding to GM-CSF. The antibody-HRP conjugate, (antiGM-CSF-HRP) was purchased from Antigenix.
The antibody-biotin (antiGM-CSF-biotin) conjugate was synthesized by adding a 25-fold molar excess (9.28 μg) of sulfo NHS-biotin (Pierce), dissolved in DMF (1 mg/mL), to 0.1 mg of antibody (Antigenix) in 0.1 mL of 0.1 M sodium borate pH 8.25. After a 60 min incubation at ambient temperature, the reaction was left to incubate overnight at 4° C. The biotinylated antibody was purified over a Sephadex G-25 column (GE Healthcare), equilibrated in PBS, pH 7.4, following the manufacturers instructions.
In order to conduct the heterogeneous assay, 30 μL of an antiGM-CSF-Biotin conjugate solution (0.75 μg/mL, 22.5 ng), 30 μL of calibrator solution having GM-CSF in the range 0-30,000 pg/mL, 30 μL of antiGM-CSF-HRP conjugate (2.25 μg/mL, 67 ng), and 30 μL of AK-streptavidin magnetic particle solution (10 μg of particles) were pipetted into the wells of a white microtiter plate. The plate was incubated for 60 minutes at room temperature. 5 μL of a 2-aminophenol solution (11 mM, 55 nmoles) was added as SSIA. The plate was placed into an injection plate luminometer. 100 μL of trigger solution A was added by the luminometer and the chemiluminescent signal was read for 5 seconds.

The mark [1] stands for this setting: 2-aminophenol as SSIA, GM-CSF 0 pg/mL.
Where [2] appears, read: 2-aminophenol as SSIA, GM-CSF 1 pg/mL.
Where [3] appears, read: 2-aminophenol as SSIA, GM-CSF 3 pg/mL.
Setting [4] is: 2-aminophenol as SSIA, GM-CSF 5 pg/mL.
The mark [5] stands for this setting: 2-aminophenol as SSIA, GM-CSF 10 pg/mL.
Setting [6] is: 2-aminophenol as SSIA, GM-CSF 100 pg/mL.
Setting [7] is: 2-aminophenol as SSIA, GM-CSF 1000 pg/mL.
The mark [8] stands for this setting: 2-aminophenol as SSIA, GM-CSF 10000 pg/mL.
Setting [9] is: PSA 129 ng/mL (S5) vs zero, test compound final conc. 122 uM.
Where [10] appears, read: PSA 129 ng/mL (S5) vs zero, test compound final conc. 0.122 mM.

Compound `Cn1ccnc1S` had an S5/S0 with PSA (PSA 129 ng/mL (S5) vs zero, test compound final conc. 36.7 mM) of 102.
`Nc1ncc[nH]1` registered an S5/S0 with PSA (PSA 129 ng/mL (S5) vs zero, test compound final conc. 24.4 mM) of 14.
`Nc1ccc2[nH]ncc2c1` had an S5/S0 with PSA (PSA 129 ng/mL (S5) vs zero, test compound final conc. 12.2 mM) of 10.
As for `Nc1ccccc1O` [2-aminophenol], at biotinylated HRP, the S/S0 turned out to be 1, the B-HRP0 light intensity amounted to 65, the S1/S0 was determined as 5.5 and the B-HRP1 light intensity came to 356. For the same compound, on biotinylated HRP, the S2/S0 is 132.8, the B-HRP10 light intensity was 8,632, the S3/S0 came to 32195.4 and the B-HRP100 light intensity is reported as 2,092,703. Also, on biotinylated HRP, the S4/S0 is 61672.1, the B-HRP250 light intensity is given as 4,008,689 and the “effect in the model system / utility as SSIA” value is “demonstrating utility as SSIA”. In addition, the “Mean RLU” value with GM-CSF (2-aminophenol 55 nmoles as SSIA, GM-CSF 30000 pg/mL) was 2180 RLU. Further, in the experiment with GM-CSF (setting [1]), the “Mean RLU” value was 0.7805 RLU and the S/S0 is on record as 1.000. In addition, in the experiment with GM-CSF (setting [2]), the “Mean RLU” value amounted to 0.8045 RLU and the S/S0 worked out at 1.030. In addition, in the experiment on GM-CSF (setting [3]), the “Mean RLU” value was found to be 0.8865 RLU and the S/S0 turned out to be 1.135. In the experiment with GM-CSF (setting [4]), the “Mean RLU” value is 0.9205 RLU and the S/S0 stood at 1.179. Also, in the experiment on GM-CSF (setting [5]), the “Mean RLU” value stood at 1.284 RLU and the S/S0 is on record as 1.645. Also, in the experiment on GM-CSF (setting [6]), the “Mean RLU” value is reported as 5.2805 RLU and the S/S0 came to 6.765. In addition, in the experiment on GM-CSF (setting [7]), the “Mean RLU” value is reported as 47.89 RLU and the S/S0 stood at 61.358. Besides, in the experiment with GM-CSF (setting [8]), the “Mean RLU” value is on record as 580.6 RLU and the S/S0 came out at 743.882. In the experiment with GM-CSF (2-aminophenol as SSIA, GM-CSF 30000 pg/mL), the S/S0 is on record as 2793.081.
With `O[C@@H](CS)[C@@H](O)CS` [DTT], the S5/S0 with PSA (PSA 129 ng/mL (S5) vs zero, test compound final conc. 72 uM) is recorded as 20.
The compound `OCCO` [Ethylene glycol] yielded an S5/S0 in the experiment on PSA of 14.
`N[C@@H](CCC(=O)N[C@@H](CS)C(=O)NCC(=O)O)C(=O)O` [Glutathione]: at biotinylated HRP, the S/S0 was determined as 1, the B-HRP0 light intensity is 26,977, the S1/S0 is 2.1 and the B-HRP1 light intensity is reported as 55,719. Further, on biotinylated HRP, the S2/S0 stood at 92, the B-HRP10 light intensity was 2,480,764, the S3/S0 was found to be 323.7 and the B-HRP100 light intensity is reported as 8,733,068. In addition, at biotinylated HRP, the S4/S0 was found to be 369.4, the B-HRP250 light intensity is recorded as 9,965,235 and the “effect in the model system / utility as SSIA” value is recorded as “no effect”. In addition, the S5/S0 with PSA (setting [9]) came out at 77.
In the case of `N[C@@H](CS)C(=O)O` [L-Cysteine], the S5/S0 with PSA (setting [9]) is given as 22.
In the experiment on PSA (PSA 129 ng/mL (S5) vs zero, test compound final conc. 244 uM), `NN` [NH2NH2] returned an S5/S0 of 15.
In turn, `O=S([O-])[O-].[Na+].[Na+]` [Na2SO3] returned an S5/S0 in the experiment on PSA (PSA 129 ng/mL (S5) vs zero, test compound final conc. 15 uM) of 59.
As to `[N-]=[N+]=[N-].[Na+]` [NaN3], the S5/S0 in the experiment with PSA (PSA 129 ng/mL (S5) vs zero, test compound final conc. 34 uM) turned out to be 19.
Consider `Cc1cc(-c2cc(C)c(N)c(C)c2)cc(C)c1N` [TMB], for which the S5/S0 in the experiment with PSA (PSA 129 ng/mL (S5) vs zero, test compound final conc. 61 uM) is reported as 20.
The compound `O=C1O[C@H]([C@@H](O)CO)C([O-])=C1O.[Na+]` [ascorbate sodium salt (ascorbate anion), ascorbate sodium salt] showed an S5/S0 with PSA (setting [10]) of 495.
In the experiment with PSA (setting [10]), `Nc1ccccc1O` [drawing 47] returned an S5/S0 of 649.
Regarding `O=C1O[C@H]([C@@H](O)CO)C(O)=C1O` [drawing 64], the S5/S0 with PSA (setting [9]) is listed as 10.3.
For `O=C1O[C@H]([C@@H](O)CO)C(O)=C1O` [drawing 72], in the experiment with PSA (setting [10]), the S5/S0 came to 423.
With `Oc1ccc(O)c(Cl)c1` [drawing 75], the S5/S0 in the experiment on PSA (PSA 129 ng/mL (S5) vs zero, test compound final conc. 0.111 mM) stood at 229.
Consider `Oc1ccc(Cl)cc1O` [drawing 77], for which the S5/S0 in the experiment on PSA (PSA 129 ng/mL (S5) vs zero, test compound final conc. 0.244 mM) worked out at 409.
In the experiment on PSA (setting [10]), `Nc1ccc(C(=O)O)cc1O` [drawing 79] came in with an S5/S0 of 153.
